Data on 12 molecules can be found in ChEMBL document CHEMBL1143735, “Synthesis, anti-HIV activity, and resistance profile of thymidine phosphonomethoxy nucleosides and their bis-isopropyloxymethylcarbonyl (bisPOC) prodrugs” (Bioorg Med Chem, 2007).

Data set [1] has as its system Human immunodeficiency virus 1. Put plainly: Inhibition of virus-induced cytopathic effect in wild type HIV 3a infected MT2 cells after 5 days. The format is functional, organism-based. The conditions noted are these: Human immunodeficiency virus 1, 3a, MT2, 120 h. For orientation: Damage to the host cells serves as the signal in cytopathic effect assays.
Data set [2] addresses Human immunodeficiency virus type 1 reverse transcriptase (Human immunodeficiency virus 1, UniProt Q72547). Description: Inhibition of HIV1 reverse transcriptase.
Data set [3] can be described thus: Cytotoxicity against MT2 cells. The format is cell-based. The conditions noted are these: human.
Data set [4] deals with Human immunodeficiency virus 1. Put plainly: Antiviral activity against HIV1 with reverse transcriptase 6TAM mutation assessed as reduction of potency relative to wild type. In kind it is functional.
In data set [5] the test system is Human immunodeficiency virus 1. Description: Antiviral activity against HIV1 with reverse transcriptase K65R mutation assessed as reduction of potency relative to wild type. In kind it is functional.
Data set [6] deals with Human immunodeficiency virus 1. Description: Antiviral activity against HIV with reverse transcriptase M184V mutation assessed as reduction of potency relative to wild type. The format is functional.

By EC50 is commonly meant the concentration at which the effect is half-maximal. Higher therefore signals a need for much substance. A word on the IC50: it is the midpoint of a concentration-inhibition curve. Low readings indicate inhibition by little substance, high ones a need for much substance. The term CC50 denotes the concentration that lowers cell viability or growth by half. Low readings indicate harm at low concentration, high ones better tolerance by the cells. `Cc1cn([C@H]2C=C[C@@H](OCP(=O)(O)O)O2)c(=O)[nH]c1=O` showed an EC50 in data set [1] of 26 µM. The IC50 in data set [2] was 0.39 µM. The same molecule showed a CC50 in data set [3] greater than 500 µM. Further, the Fold change in data set [4] stood at 13; in data set [5] it was 5.2; in data set [6], 1.1.

As for `Cc1cn([C@H]2CC[C@@H](OCP(=O)(O)O)O2)c(=O)[nH]c1=O`, the EC50 in data set [1] was greater than 200 µM. For the same molecule, in data set [2], the IC50 turned out to be 5.4 µM. Besides, the CC50 in data set [3] was greater than 500 µM.

Consider `Cc1cn([C@H]2CC[C@@H](OCP(=O)(OCOC(=O)OC(C)C)OCOC(=O)OC(C)C)O2)c(=O)[nH]c1=O`, for which the EC50 in data set [1] turned out to be 1.3 µM. In data set [3], the CC50 was greater than 50 µM.

`Cc1cn([C@H]2CC[C@@H](OCP(=O)(O)O)O2)c(=O)[nH]c1=O.O=P(O)(O)OP(=O)(O)O` displayed an EC50 in data set [1] greater than 200 µM. The same molecule gave an IC50 in data set [2] of 5.4 µM. Besides, the CC50 in data set [3] is greater than 500 µM.

`Cc1cn([C@H]2C[C@H](N=[N+]=[N-])[C@@H](OCP(=O)(O)O)O2)c(=O)[nH]c1=O` came in with an EC50 in data set [1] greater than 200 µM.

In the case of `Cc1cn([C@H]2C=C[C@@H](OCP(=O)(OCOC(=O)OC(C)C)OCOC(=O)OC(C)C)O2)c(=O)[nH]c1=O`, in data set [1], the EC50 turned out to be 0.91 µM. The molecule further returned a 50% cytotoxic concentration (CC50) in data set [3] of 10 µM.

As for `Cc1cn([C@H]2CC[C@@H](CO)O2)c(=O)[nH]c1=O`, the EC50 in data set [1] is greater than 200 µM. For the same molecule, the IC50 in data set [2] worked out at 0.12 µM.

In the case of `Cc1cn([C@H]2C=C[C@@H](COP(=O)(O)OP(=O)(O)OP(=O)(O)O)O2)c(=O)[nH]c1=O` [STAVUDINE TRIPHOSPHATE], it took 26 µM to reach a half-maximal effect in data set [1] (EC50). The molecule also came in with an IC50 in data set [2] of 0.39 µM. Also, in data set [3], the CC50 is greater than 500 µM. In addition, the Fold change in data set [4] is 13; in data set [5] it was 5.2; in data set [6] it was 1.1.

In the case of `Cc1cn([C@H]2C=C[C@@H](CO)O2)c(=O)[nH]c1=O` [STAVUDINE], in data set [1], the response was half-maximal at 4.8 µM (EC50). In data set [2], half-maximal inhibition (IC50) required 0.06 µM. Also, the midpoint of cytotoxicity in data set [3], the CC50, lay at 286 µM. Moreover, the Fold change in data set [4] was determined as 5.5; in data set [5] it was 2.3; in data set [6] it was 1.2.

Take `C[C@H](Cn1cnc2c(N)ncnc21)OCP(=O)(O)O` [TENOFOVIR ANHYDROUS]: in data set [2], 0.38 µM corresponded to half-maximal inhibition (IC50). The molecule also returned a CC50 in data set [3] greater than 200 µM. Moreover, the Fold change in data set [4] is 8.8; in data set [5] it was 4.3; in data set [6] it was 0.7.

With `CC(C)OC(=O)OCOP(=O)(CO[C@H](C)Cn1cnc2c(N)ncnc21)OCOC(=O)OC(C)C.O=C(O)/C=C/C(=O)O` [TENOFOVIR DISOPROXIL FUMARATE], a half-maximal effect in data set [1] (EC50) was put at 0.015 µM. Further, the CC50 in data set [3] was greater than 50 µM. Also, the Fold change in data set [4] is listed as 7.7; in data set [5] it was 3.1.

Molecule `Cc1cn([C@H]2C[C@H](N=[N+]=[N-])[C@@H](CO)O2)c(=O)[nH]c1=O` [ZIDOVUDINE] came in with a CC50 in data set [3] greater than 200 µM.
